One experiment has as its target T1, MGLL (Mus musculus, UniProt O35678).
T1 construct: Brain; from tissue; host or cells: mouse brain proteome
T1 sequence (O35678 1-303): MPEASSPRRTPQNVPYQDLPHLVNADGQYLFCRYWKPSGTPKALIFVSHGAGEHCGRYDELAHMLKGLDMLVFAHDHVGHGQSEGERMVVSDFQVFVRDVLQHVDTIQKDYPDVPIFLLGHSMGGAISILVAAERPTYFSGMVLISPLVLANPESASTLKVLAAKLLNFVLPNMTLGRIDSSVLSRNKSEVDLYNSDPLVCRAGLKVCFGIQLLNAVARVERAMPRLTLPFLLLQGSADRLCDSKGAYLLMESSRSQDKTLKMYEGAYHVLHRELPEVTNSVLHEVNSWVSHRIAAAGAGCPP
Briefly: In vitro competitive activity-based protein profiling, mouse brain proteome (MGLL). It is filed as biochemical. Further details: IC50 MGLL Brain (Mouse, μM): scale not given here. The note with it: for % Inh MGLL Brain (Mouse, μM): concentration not given (μM).

The target in the next experiment is T2, ABHD6 (Mus musculus, UniProt Q8R2Y0).
T2 construct: Brain; from tissue; host or cells: mouse brain proteome
T2 sequence (Q8R2Y0 1-336): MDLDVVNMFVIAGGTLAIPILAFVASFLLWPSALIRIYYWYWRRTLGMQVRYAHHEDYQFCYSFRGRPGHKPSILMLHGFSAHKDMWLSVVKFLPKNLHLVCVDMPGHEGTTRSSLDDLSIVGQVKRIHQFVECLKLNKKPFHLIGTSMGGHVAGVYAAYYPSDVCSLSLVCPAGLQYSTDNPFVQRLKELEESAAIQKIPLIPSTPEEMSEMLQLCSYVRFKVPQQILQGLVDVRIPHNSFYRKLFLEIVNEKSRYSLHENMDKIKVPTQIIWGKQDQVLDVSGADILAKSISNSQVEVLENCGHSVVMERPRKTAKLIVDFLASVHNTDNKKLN
Briefly: In vitro competitive activity-based protein profiling, mouse brain proteome (ABHD6). It is filed as biochemical. The note with it: mouse brain proteome; concentration not given (μM). The method, then: [The source words this procedure for another target and reports this target under the same test.] In Vitro Competitive Activity-Based Protein Profiling.
Proteomes (human prefrontal cortex or cell membrane fractions) (50 μL, 1.0 mg/mL total protein concentration) were preincubated with varying concentrations of inhibitors at 37° C. After 30 min, FP-Rh or HT-01 (1.0 μL, 50 μM in DMSO) was added and the mixture was incubated for another 30 min at room temperature. Reactions were quenched with SDS loading buffer (15 μL-4×) and run on SDS-PAGE.

Structures are written as SMILES.

For the compound `CC(=O)N1CCCc2cccc(CN3CC4(CCN(C(=O)OC(C(F)(F)F)C(F)(F)F)CC4)C3)c21` [Example 15, 1,1,1,3,3,3-Hexafluoropropan-2-yl 2-((1-acetyl-1,2,3,4-tetrahydroquinolin-8-yl)methyl)-2,7-diazaspiro[3.5]nonane-7-carboxylate], at MGLL, the “IC50 MGLL Brain (Mouse, μM)” value is on record as “* * *” and the “% Inh MGLL Brain (Mouse, μM)” value is “### (### is ≥75%)”. Also, the “% Inh ABHD6 Brain (Mouse, μM)” value on ABHD6 was “### (### is ≥75%)”.

For `O=C(OC(C(F)(F)F)C(F)(F)F)N1CC2(CCN(Cc3cccc(N4CCCC4)c3)CC2)C1` [Example 77, 1,1,1,3,3,3-Hexafluoropropan-2-yl 7-(3-(pyrrolidin-1-yl)benzyl)-2,7-diazaspiro[3.5]nonane-2-carboxylate], the “% Inh MGLL Brain (Mouse, μM)” value on MGLL is “## (## is between 25 and 75%)”. The “% Inh ABHD6 Brain (Mouse, μM)” value on ABHD6 was “### (### is ≥75%)”.

Take `CS(=O)(=O)N1CCC2(CCN(c3cccc(C(F)(F)F)c3CN3CC4(CCN(C(=O)OC(C(F)(F)F)C(F)(F)F)CC4)C3)CC2)C1` [Example 62, 1,1,1,3,3,3-Hexafluoropropan-2-yl 2-(2-(2-(methylsulfonyl)-2,8-diazaspiro[4.5]decan-8-yl)-6-(trifluoromethyl)benzyl)-2,7-diazaspiro[3.5]nonane-7-carboxylate]: the “% Inh MGLL Brain (Mouse, μM)” value at MGLL is given as “### (### is ≥75%)”. For the same compound, the “% Inh ABHD6 Brain (Mouse, μM)” value at ABHD6 is on record as “### (### is ≥75%)”.

Regarding `CC(=O)N1CCCC12CCN(c1cc(C(F)(F)F)ccc1CN1CCN(C(=O)OC(C(F)(F)F)C(F)(F)F)CC1)CC2` [Example 208, 1,1,1,3,3,3-Hexafluoropropan-2-yl 4-(2-(1-acetyl-1,8-diazaspiro[4.5]decan-8-yl)-4-(trifluoromethyl)benzyl) piperazine-1-carboxylate], at MGLL, the “% Inh MGLL Brain (Mouse, μM)” value is recorded as “### (### is ≥75%)”. Besides, on ABHD6, the “% Inh ABHD6 Brain (Mouse, μM)” value is “# (# is ≤25%)”.

Take `CC(=O)N1CC2(CCN(c3ccccc3CN3CCC34CCN(C(=O)OC(C(F)(F)F)C(F)(F)F)CC4)C2)C1` [Example 228, 1,1,1,3,3,3-Hexafluoropropan-2-yl 1-(2-(2-acetyl-2,6-diazaspiro[3,4]octan-6-yl)benzyl)-1,7-diazaspiro[3.5]nonane-7-carboxylate]: on MGLL, the “% Inh MGLL Brain (Mouse, μM)” value was “### (### is ≥75%)”. The “% Inh ABHD6 Brain (Mouse, μM)” value at ABHD6 is reported as “# (# is ≤25%)”.

Take `O=C(OC(C(F)(F)F)C(F)(F)F)N1CCC2(CC1)CN(Cc1ccc(N3CCOCC3)cc1Cl)C2` [Example 79, 1,1,1,3,3,3-Hexafluoropropan-2-yl 2-(2-chloro-4-morpholinobenzyl)-2,7-diazaspiro[3.5]nonane-7-carboxylate]: the “% Inh MGLL Brain (Mouse, μM)” value on MGLL is given as “### (### is ≥75%)”. Besides, the “% Inh ABHD6 Brain (Mouse, μM)” value on ABHD6 is given as “### (### is ≥75%)”.

As to `O=C(OC(C(F)(F)F)C(F)(F)F)N1CCC2(CCN(Cc3ccc(Cl)cc3N3CCC(F)CC3)CC2)C1` [Example 28, 1,1,1,3,3,3-Hexafluoropropan-2-yl 8-(4-chloro-2-(4-fluoropiperidin-1-yl)benzyl)-2,8-diazaspiro[4.5]decane-2-carboxylate], at MGLL, the “IC50 MGLL Brain (Mouse, μM)” value is given as “* * *” and the “% Inh MGLL Brain (Mouse, μM)” value is “### (### is ≥75%)”. Further, on ABHD6, the “% Inh ABHD6 Brain (Mouse, μM)” value is listed as “# (# is ≤25%)”.

Take `CN1CCC2(CCN(c3cc(Cl)ccc3CN3CCN(C(=O)OC(C(F)(F)F)C(F)(F)F)CC3)CC2)C1` [Example 177, 1,1,1,3,3,3-Hexafluoropropan-2-yl 4-(4-chloro-2-(2-methyl-2,8-diazaspiro[4.5]decan-8-yl)benzyl)piperazine-1-carboxylate]: at MGLL, the “% Inh MGLL Brain (Mouse, μM)” value is “### (### is ≥75%)”. Moreover, the “% Inh ABHD6 Brain (Mouse, μM)” value on ABHD6 is “# (# is ≤25%)”.

Turning to `Cc1cccc(CN2CC3(CCN(C(=O)OC(C(F)(F)F)C(F)(F)F)CC3)C2)c1` [Example 86, 1,1,1,3,3,3-Hexafluoropropan-2-yl 2-(3-methylbenzyl)-2,7-diazaspiro[3.5]nonane-7-carboxylate], the “% Inh MGLL Brain (Mouse, μM)” value at MGLL was “### (### is ≥75%)”. Further, the “% Inh ABHD6 Brain (Mouse, μM)” value at ABHD6 was “### (### is ≥75%)”.

Consider `CC(=O)N1CC2(CCN(c3cc(Cl)ccc3CN3CCN(C(=O)OC(C(F)(F)F)C(F)(F)F)CC3)C2)C1` [Example 176, 1,1,1,3,3,3-Hexafluoropropan-2-yl 4-(2-(2-acetyl-2,6-diazaspiro[3.4]octan-6-yl)-4-chlorobenzyl)piperazine-1-carboxylate], for which the “% Inh MGLL Brain (Mouse, μM)” value at MGLL was “### (### is ≥75%)”. In addition, at ABHD6, the “% Inh ABHD6 Brain (Mouse, μM)” value is on record as “# (# is ≤25%)”.

Take `CCN1CCCc2cccc(CN3CCC4(CC3)CN(C(=O)OC(C(F)(F)F)C(F)(F)F)C4)c21` [Example 31, 1,1,1,3,3,3-Hexafluoropropan-2-yl 7-((1-ethyl-1,2,3,4-tetrahydroquinolin-8-yl)methyl)-2,7-diazaspiro[3.5]nonane-2-carboxylate]: the “% Inh MGLL Brain (Mouse, μM)” value on MGLL is “## (## is between 25 and 75%)”. Moreover, the “% Inh ABHD6 Brain (Mouse, μM)” value on ABHD6 is given as “### (### is ≥75%)”.

With `CN1CCC2(CCN(c3cc(C(F)(F)F)ccc3CN3CCN(C(=O)OC(C(F)(F)F)C(F)(F)F)CC3)CC2)C1` [Example 182, 1,1,1,3,3,3-Hexafluoropropan-2-yl 4-(2-(2-methyl-2,8-diazaspiro[4.5]decan-8-yl)-4-(trifluoromethyl)benzyl) piperazine-1-carboxylate], the “% Inh MGLL Brain (Mouse, μM)” value at MGLL is “### (### is ≥75%)”. Besides, the “% Inh ABHD6 Brain (Mouse, μM)” value at ABHD6 was “# (# is ≤25%)”.

`CC(=O)N1CCCc2cccc(CN3CCC4(CC3)CN(C(=O)OC(C(F)(F)F)C(F)(F)F)C4)c21` [Example 152, 1,1,1,3,3,3-Hexafluoropropan-2-yl 7-((1-acetyl-1,2,3,4-tetrahydroquinolin-8-yl)methyl)-2,7-diazaspiro[3.5]nonane-2-carboxylate]: the “% Inh MGLL Brain (Mouse, μM)” value at MGLL is recorded as “### (### is ≥75%)”. Besides, the “% Inh ABHD6 Brain (Mouse, μM)” value on ABHD6 is reported as “### (### is ≥75%)”.

Consider `CC(=O)N1CCCc2cccc(CN3CCC4(CC3)CCN(C(=O)OC(C(F)(F)F)C(F)(F)F)C4)c21` [Example 193, 1,1,1,3,3,3-Hexafluoropropan-2-yl 8-((1-acetyl-1,2,3,4-tetrahydroquinolin-8-yl)methyl)-2,8-diazaspiro[4.5]decane-2-carboxylate], for which the “% Inh MGLL Brain (Mouse, μM)” value on MGLL was “## (## is between 25 and 75%)”. Further, at ABHD6, the “% Inh ABHD6 Brain (Mouse, μM)” value was “# (# is ≤25%)”.

Regarding `CS(=O)(=O)N1CCN(c2cccc(C(F)(F)F)c2CN2CC3(CCN(C(=O)OC(C(F)(F)F)C(F)(F)F)CC3)C2)CC1` [Example 53, 1,1,1,3,3,3-Hexafluoropropan-2-yl 2-(2-(4-(methylsulfonyl)piperazin-1-yl)-6-(trifluoromethyl)benzyl)-2,7-diazaspiro[3.5]nonane-7-carboxylate], at MGLL, the “% Inh MGLL Brain (Mouse, μM)” value is recorded as “### (### is ≥75%)”. Moreover, the “% Inh ABHD6 Brain (Mouse, μM)” value at ABHD6 is recorded as “### (### is ≥75%)”.

Regarding `CN(Cc1ccc(C(F)(F)F)cc1N1CCOCC1)C1(C)CCN(C(=O)OC(C(F)(F)F)C(F)(F)F)CC1` [Example 63, 1,1,1,3,3,3-Hexafluoropropan-2-yl 4-methyl-4-(methyl(2-morpholino-4-(trifluoromethyl)benzyl)amino) piperidine-1-carboxylate], the “% Inh MGLL Brain (Mouse, μM)” value at MGLL is recorded as “### (### is ≥75%)”. Also, the “% Inh ABHD6 Brain (Mouse, μM)” value on ABHD6 is “### (### is ≥75%)”.

For the origin of these results see patent US11161856B2 (H. Lundbeck A/S, priority 2017, dated 2021).
